Experimental data reported in patent US12358907B2, “Substituted pyrrolidine amides III” (GRÜNENTHAL GMBH, priority 2019, dated 2025).

Each compound was assayed against glucocorticoid receptor (GAL4 DBD-GR) (Homo sapiens (Human), UniProt P04150) (assay: GR cell-based assays (GRE agonist / GRE antagonist), CHO-Gal4/GR luciferase reporter). Conditions: CHO-Gal4/GR reporter cells, agonist mode (EC50) or antagonist mode against beclometasone (IC50), 6 hour incubation.
Excerpt: Potential selective glucocorticoid receptor modulators of this intervention can be tested for modulation of the activity of the glucocorticoid receptor using cell-based assays. These assays involve a Chinese hamster ovary (CHO) cell line which contains fragments of the glucocorticoid receptor as well as fusion proteins. The glucocorticoid receptor fragments used are capable of binding the ligand (e.g. beclomethasone) to identify molecules that compete for binding with glucocorticoid receptor ligands. In more detail, the glucocorticoid receptor ligand binding domain is fused to the DNA binding domain (DBD) of the transcription factor GAL4 (GAL4 DBD-GR) and is stably integrated into a CHO cell line containing a GAL4-UAS-Luciferase reporter construct. […] After cell lysis the luminescence that is produced by luciferase after addition of the substrate is detected and EC50 or IC50 values can be calcuated. Engagement of molecules which induce gene expression via glucocortocoid receptor binding to the DNA leads to expression of the luciferase gene under the control of the fusion protein GAL4 DBD-GR and therefore to a dose-dependent increase of the luminescence signal. Binding of molecules which repress beclomethasone-induced gene expression of the luciferase gene under the control of the fusion protein GAL4 DBD-GR leads to a dose-dependent reduction of the luminescence signal.
The reporter cell line CHO-Gal4/GR consisted of a chinese hamster ovary (CHO) cell line (Leibniz Institute DSMZ—German Collection of Microorganisms and Cell Cultures GmbH: ACC-110) containing a firefly luciferase gene under the control of the GR ligand binding domain fused to the DNA binding domain (DBD) of GAL4 (GAL4 DBD-GR) stably integrated into CHO cells. This cell line was established by stable transfection of CHO cells with a GAL4-UAS-Luciferase reporter construct. In a subsequent step the ligand binding domain of the GR cloned into pIRES2-EGFP-GAL4 containing the DNA binding domain of GAL4 from pFA-AT2 was transfected. This fusion construct activated firefly luciferase expression under the control of a multimerized GAL4 upstream activation sequence (UAS). The signal of the emitted luminescence was recorded by the FLIPR^TETRA. This allowed for specific detection of ligand-induced activation of the GR and therefore for the identification of compounds with agonistic properties. The GAL4/UAS reporter was premixed with a vector that constitutively expressed Renilla luciferase, which served as an internal positive control for transfection efficiency.
The complete culture medium for the assay was: • DMEM F-12 (1:1) MIXTURE (LONZA cat. No: BE04-687F/U1) 500 mL • 5 mL of 100 mM Sodium Pyruvate (LONZA cat. No: BE12-115E) • 25 mL of 7.5% Sodium Bicarbonate (LONZA cat. No BE17-613E) • 6.5 mL of 1 M Hepes (LONZA cat. No: BE17-737E) • 5 mL of 100× Penicillin/Streptomycin (LONZA cat. No DE17-602E) • 50 mL of Fetal Bovine Serum (Euroclone cat. No ECS 0180L) • 0.25 mL of 10 mg/mL Puromycin (InvivoGen cat.: ant-pr-1) • 0.5 mL of 100 mg/mL Zeocin (InvivoGen cat.: ant-zn-1)
Cryo-preserved CHO-Gal4/GR cells were suspended in complete medium and 5000 cells/25 μl/well were seeded into the wells of 384-well polystyrene assay plates (Thermo Scientific, cat. #4332) and cultured at 37° C., 5% CO2 and 95% humidity. After 24 hours growth medium was carefully removed and replaced by 30 μl Opti-MEM (GIBCO, cat. #31985062) as assay buffer. To test the compounds an 8-point half-log compound dilution curve was generated in 100% DMSO starting from a 2 mM stock and compounds were then diluted 1:50 in Opti-MEM. 10 μl of compounds were then added to the wells containing 30 μl Opti-MEM resulting in a final assay concentration range from 10 μM to 0.003 μM in 0.5% DMSO. Compounds were tested at 8 concentrations in quadruplicate data points. […] Finally, cells were lysed with 20 μl of Triton/Luciferin solution and the signal of the emitted luminescence was recorded at the FLIPR^TETRA for 2 minutes. […]

Chain of glucocorticoid receptor (GAL4 DBD-GR) (P04150 524-758): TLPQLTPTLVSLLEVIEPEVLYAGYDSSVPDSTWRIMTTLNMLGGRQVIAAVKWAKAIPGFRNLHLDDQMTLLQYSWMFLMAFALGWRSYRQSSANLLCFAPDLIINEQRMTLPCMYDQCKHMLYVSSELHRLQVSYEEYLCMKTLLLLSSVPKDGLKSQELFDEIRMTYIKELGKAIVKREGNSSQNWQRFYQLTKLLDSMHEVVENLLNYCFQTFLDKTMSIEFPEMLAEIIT

Row | Structure (SMILES) | IC50
1 | C[C@@]1(CC(F)F)C(=O)N(c2ccc3c(cnn3-c3ccc(F)cc3)c2)[C@H](c2ccccc2)[C@H]1NC(=O)C1CC1 (racemic) [Example 136, N-(rac(2R,3S,4S)-4-(2,2-difluoroethyl)-1-(1-(4-fluorophenyl)-1H-indazol-5-yl)-4-methyl-5-oxo-2-phenylpyrrolidin-3-yl)cyclopropanecarboxamide] | < 0.1 µM

Same assay, conditions: read-out: IC50 or EC50

Row | Structure (SMILES) | IC50
2 | CC[C@@H]1[C@@H](NC(=O)C(C)(F)F)[C@H](Cc2ccccc2)C(=O)N1c1ccc2c(cnn2-c2ccc(F)cc2)c1 (racemic) [Example 107, N-[rac-(2R,3S,4S)-4-Benzyl-2-ethyl-1-[1-(4-fluorophenyl)-1H-indazol-5-yl]-5-oxo-pyrrolidin-3-yl]-2,2-difluoro-propionamide] | 1 to 15 µM
3 | C[C@@H]1C(=O)N(c2ccc3c(cnn3-c3ccc(F)cc3)c2)[C@H](c2ccc(Cl)s2)[C@H]1NC(=O)C1CC1 (racemic) [Example 108, N-[rac-(2S,3S,4S)-2-(5-Chloro-thiophen-2-yl)-1-[1-(4-fluorophenyl)-1H-indazol-5-yl]-4-methyl-5-oxo-pyrrolidin-3-yl]-cyclopropanecarboxylic acid amide] | < 0.1 µM
4 | C[C@@H]1C(=O)N(c2ccc3c(cnn3-c3ccc(F)cc3)c2)[C@H](c2ccc(Cl)s2)[C@H]1NC(=O)c1ncccn1 (racemic) [Example 109, N-[rac-(2S,3S,4S)-2-(5-Chloro-thiophen-2-yl)-1-[1-(4-fluorophenyl)-1H-indazol-5-yl]-4-methyl-5-oxo-pyrrolidin-3-yl]-pyrimidine-2-carboxylic acid amide] | < 0.1 µM
5 | C[C@@H]1C(=O)N(c2ccc3c(cnn3-c3ccc(F)cc3)c2)[C@H](c2ccc(Cl)s2)[C@H]1NC(=O)c1ccn(C)n1 (racemic) [Example 110, N-[rac-(2S,3S,4S)-2-(5-Chloro-thiophen-2-yl)-1-[1-(4-fluorophenyl)-1H-indazol-5-yl]-4-methyl-5-oxo-pyrrolidin-3-yl]-1-methyl-1H-pyrazole-3-carboxylic acid amide] | < 0.1 µM
6 | C[C@@H]1C(=O)N(c2ccc3c(cnn3-c3ccc(F)cc3)c2)[C@H](c2ccc(Cl)s2)[C@H]1NC(=O)c1cccnc1 (racemic) [Example 111, N-[rac-(2S,3S,4S)-2-(5-Chloro-thiophen-2-yl)-1-[1-(4-fluorophenyl)-1H-indazol-5-yl]-4-methyl-5-oxo-pyrrolidin-3-yl]-pyridine-3-carboxylic acid amide] | < 0.1 µM
7 | C[C@@H]1C(=O)N(c2ccc3c(cnn3-c3ccc(F)cc3)c2)[C@H](c2ccccc2Cl)[C@H]1NC(=O)C1CC1 (racemic) [Example 112, N-[rac-(2R,3S,4S)-2-(2-Chlorophenyl)-1-[1-(4-fluorophenyl)-1H-indazol-5-yl]-4-methyl-5-oxo-pyrrolidin-3-yl]-cyclopropanecarboxylic acid amide] | 0.1 to 1 µM
8 | Cc1ncsc1C(=O)N[C@H]1[C@H](C)C(=O)N(c2ccc3c(cnn3-c3ccc(F)cc3)c2)[C@@H]1c1ccc(Cl)s1 (racemic) [Example 113, N-[rac-(2S,3S,4S)-2-(5-Chloro-thiophen-2-yl)-1-[1-(4-fluorophenyl)-1H-indazol-5-yl]-4-methyl-5-oxo-pyrrolidin-3-yl]-4-methyl-thiazole-5-carboxylic acid amide] | 0.1 to 1 µM
9 | C[C@@H]1C(=O)N(c2ccc3c(cnn3-c3ccc(F)cc3)c2)[C@H](c2ccn(C)n2)[C@H]1NC(=O)C(C)(F)F (racemic) [Example 120, 2,2-Difluoro-N-[rac-(2S,3S,4S)-1-[1-(4-fluorophenyl)-1H-indazol-5-yl]-4-methyl-2-(1-methyl-1H-pyrazol-3-yl)-5-oxo-pyrrolidin-3-yl]-propionamide] | 1 to 15 µM
10 | O=C(N[C@H]1[C@H](CC2CC2)C(=O)N(c2ccc3c(cnn3-c3ccc(F)cc3)c2)[C@@H]1c1ccccc1)C1CC1 (racemic) [Example 121, N-[rac-(2R,3S,4S)-4-(Cyclopropyl-methyl)-1-[1-(4-fluorophenyl)-1H-indazol-5-yl]-5-oxo-2-phenyl-pyrrolidin-3-yl]-cyclopropanecarboxylic acid amide] | < 0.1 µM
11 | C[C@@H]1C(=O)N(c2ccc3c(cnn3-c3ccc(F)cc3)c2)[C@H](c2ccc(Cl)s2)[C@H]1NC(=O)C(C)(F)F (racemic) [Example 123, N-[rac-(2S,3S,4S)-2-(5-Chloro-thiophen-2-yl)-1-[1-(4-fluorophenyl)-1H-indazol-5-yl]-4-methyl-5-oxo-pyrrolidin-3-yl]-2,2-difluoro-propionamide] | < 0.1 µM
12 | C[C@H]1C(=O)N(c2ccc3c(cnn3-c3ccc(F)cc3)c2)[C@H](c2ccc(Cl)s2)[C@H]1NC(=O)C1CC1 (racemic) [Example 124, N-[rac-(2S,3S,4R)-2-(5-Chloro-thiophen-2-yl)-1-[1-(4-fluorophenyl)-1H-indazol-5-yl]-4-methyl-5-oxo-pyrrolidin-3-yl]-cyclopropanecarboxylic acid amide] | < 0.1 µM
13 | C[C@H]1C(=O)N(c2ccc3c(cnn3-c3ccc(F)cc3)c2)[C@H](c2ccc(Cl)s2)[C@H]1NC(=O)C(C)(F)F (racemic) [Example 125, N-[rac-(2S,3S,4R)-2-(5-Chloro-thiophen-2-yl)-1-[1-(4-fluorophenyl)-1H-indazol-5-yl]-4-methyl-5-oxo-pyrrolidin-3-yl]-2,2-difluoro-propionamide] | < 0.1 µM
14 | CC[C@@H]1C(=O)N(c2ccc3c(cnn3-c3ccc(F)cc3)c2)[C@H](c2ccccc2)[C@H]1NC(=O)C1CC1 (racemic) [Example 126, N-[rac-(2R,3S,4S)-4-Ethyl-1-[1-(4-fluorophenyl)-1H-indazol-5-yl]-5-oxo-2-phenyl-pyrrolidin-3-yl]-cyclopropanecarboxylic acid amide] | < 0.1 µM
15 | C[C@]1(F)C(=O)N(c2ccc3c(cnn3-c3ccc(F)cc3)c2)[C@H](c2ccccc2)[C@H]1NC(=O)C1CC1 (racemic) [Example 128, N-[rac-(2R,3R,4R)-4-Fluoro-1-[1-(4-fluorophenyl)-1H-indazol-5-yl]-4-methyl-5-oxo-2-phenyl-pyrrolidin-3-yl]-cyclopropanecarboxylic acid amide] | 0.1 to 1 µM
16 | C[C@@]1(F)C(=O)N(c2ccc3c(cnn3-c3ccc(F)cc3)c2)[C@H](c2ccccc2)[C@H]1NC(=O)C1CC1 (racemic) [Example 129, N-[rac-(2R,3R,4S)-4-Fluoro-1-[1-(4-fluorophenyl)-1H-indazol-5-yl]-4-methyl-5-oxo-2-phenyl-pyrrolidin-3-yl]-cyclopropanecarboxylic acid amide] | < 0.1 µM
17 | COc1ccc([C@@H]2[C@@H](NC(=O)C3CC3)[C@H](C)C(=O)N2c2ccc3c(cnn3-c3ccc(F)cc3)c2)cc1 (racemic) [Example 133, N-[rac-(2R,3S,4S)-1-[1-(4-Fluorophenyl)-1H-indazol-5-yl]-2-(4-methoxyphenyl)-4-methyl-5-oxo-pyrrolidin-3-yl]-cyclopropanecarboxylic acid amide] | 0.1 to 1 µM
18 | CC[C@@]1(C)C(=O)N(c2ccc3c(cnn3-c3ccc(F)cc3)c2)[C@H](c2ccccc2)[C@H]1NC(=O)C1CC1 (racemic) [Example 134, N-(rac-(2R,3S,4R)-4-ethyl-1-(1-(4-fluorophenyl)-1H-indazol-5-yl)-4-methyl-5-oxo-2-phenylpyrrolidin-3-yl)cyclopropanecarboxamide] | 0.1 to 1 µM
